Laboratory results from patent US10383861B2, “3-(1H-pyrrolo[2,3-C]pyridin-2-yl)-1H-pyrazolo[3,4-C]pyridines and therapeutic uses thereof” (Samumed, LLC, priority 2015, dated 2019).

Legend:
Format in all cases: cell-based
[1] = system: primary human fibroblasts derived from IPF patients (LL29 cells); assay: Inhibition of the fibrotic process: αSMA staining in TGF-β1 treated LL29 fibroblasts; conditions: Fibroblast; for EC50: 96 h, LL29 cells, TGF-β1 20 ng/mL, 4 days, % αSMA positive cells
Procedure: Representative compounds were screened using primary human fibroblasts (derived from IPF patients) treated with TGF-β1 to determine their ability to inhibit the fibrotic process.
LL29 cells are plated at 1,500 cells/well in 80 μL/well F12 medium supplemented with 1% Fetal Bovine Serum. […] Wells treated with TGF-β1 and containing DMSO were used as controls. […] Following incubation for 4 days, SYTOX green nucleic acid stain (Life Technologies [Thermo Fisher Scientific]) was added to the wells at a final concentration of 1 μM and incubated at room temperature for 30 min.

[2] = system: IL-6; assay: IL-6 inhibition in LPS-stimulated THP-1 cells (HTRF); conditions: Homo sapiens; for EC50: THP-1 cells, LPS 500 ng/mL, 22 hours, IL6 HTRF; for inhibition at 10 µM: THP-1, read-out: percent inhibition at 10 μM
Procedure: THP-1 cells were cultured in basal media with 1% FBS for 24 hours before the start of the assay. […] THP-1 cells were plated at 5000 cells/well in the 384-well plates and incubated at 37° C. for 2 h. 500 ng/mL of LPS was added after 2 hours and cells were incubated for another 22 hours at 37° C. Plates were spun in a centrifuge for 1 minute at […] and a mixture of anti-IL6 XL665, and anti-IL6 Cryptate diluted in reconstitution buffer (Cisbio Inc.) was added to each well. Following incubation for 3 hrs at room temperature, Homogeneous Time-Resolved Fluorescence (HTRF) was measured using the Envision (Perkin Elmer) at 665 nm and […]. The ratio of fluorescence at 665 nm to 620 nm was used as a readout for IL6 quantification. All samples were processed in duplicate. Readings were normalized to DMSO treated cells and normalized activities were utilized for EC50 calculations using the dose-response log (inhibitor) vs. response -variable slope (four parameters) nonlinear regression feature available in GraphPad Prism 5.0 (or Dotmatics).

[3] = system: Wnt activity; assay: Wnt activity screening assay, Sp5-Luc reporter gene in SW480 cells; conditions: Homo sapiens; for EC50: Sp5-Luc reporter, SW480 cells, overnight incubation
Description: The screening assay for Wnt activity is described as follows. Reporter cell lines can be generated by stably transducing cancer cell lines (e.g., colon cancer) or primary cells (e.g., IEC-6 intestinal cells) with a lentiviral construct that includes a Wnt-responsive promoter driving expression of the firefly luciferase gene.
SW480 colon carcinoma cells were transduced with a lentiviral vector expressing luciferase with a human Sp5 promoter consisting of a sequence of eight TCF/LEF binding sites. SW480 cells stably expressing the Sp5-Luc reporter gene and a hygromycin resistance gene were selected by treatment with 150 μg/mL of hygromycin for 7 days. These stably transduced SW480 cells were expanded in cell culture and used for all further screening activities. […] For Sp5-Luc reporter gene assays, the cells were plated at 4,000 cells/well in 384-well plates with medium containing 1% fetal bovine serum and incubated overnight at 37° C. and 5% CO2. Following incubation, 20 μl of BrightGlo luminescence reagent (Promega) was added to each well of the 384-well assay plates. The plates were placed on an orbital shaker for 2 min and then luminescence was quantified using the Envision (Perkin Elmer) plate reader. Readings were normalized to DMSO only treated cells, and normalized activities were utilized for EC50 calculations using the dose-response log (inhibitor) vs. response -variable slope (four parameters) nonlinear regression feature available in GraphPad Prism 5.0 (or Dotmatics).

[4] = system: SW480 colon cancer cells; assay: Cell viability assay (CellTiter-Blue) in SW480 colon cancer cells; conditions: Homo sapiens; for EC50: 96 h, SW480 cell viability, four days, CellTiter-Blue; for inhibition at 10 µM: SW480, read-out: percent inhibition at 10 μM
Procedure: Representative compounds were screened using the following assay procedure to assess the effect on cell viability as described below.
Approximately 2×10^3 SW480 colon cancer cells were seeded into each well and allowed to incubate in the presence or absence of compound for four days at 37° C./5% CO2. Eight replicates of DMSO-treated cells served as controls and cells treated with compound were performed in duplicate.
After incubation, 20 μL of CellTiter-Blue (Promega) was added to each well allowed to incubate for approximately 3 hours. This reagent was a buffered solution which contains resazurin, metabolically active cells were able to reduce rezarurin (blue) into resorufin (pink) which was highly fluorescent. This measured fluorescence was used as a readout for cell viability.

Row | SMILES | EC50 [2] [nM] | EC50 [3] [nM] | EC50 [4] [nM] | EC50 [1] [nM] | inhibition at 10 µM [4] [%] | inhibition at 10 µM ([1]; read-out: percent inhibition at 10 μM) [%] | inhibition at 10 µM [2] [%] | inhibition at 10 µM ([3]; SW480, read-out: percent inhibition at 10 μM) [%]
1 | CC(C)C(=O)Nc1cncc(-c2cc3c(-c4cc5c(-c6ccoc6)cncc5[nH]4)n[nH]c3cn2)c1 [Compound 317, N-(5-(3-(4-(Furan-3-yl)-1H-pyrrolo[2,3-c]pyridin-2-yl)-1H-pyrazolo[3,4-c]pyridin-5-yl)pyridin-3-yl)isobutyramide] | 1000 | 3650 | > 10000 | 4880 | 0 | – | – | –
2 | CC(C)(C)CC(=O)Nc1cncc(-c2cc3c(-c4cc5c(-c6cc(F)cc(CNS(C)(=O)=O)c6)cncc5[nH]4)n[nH]c3cn2)c1 [Compound 492, N-(5-(3-(4-(3-Fluoro-5-(methylsulfonamidomethyl)phenyl)-1H-pyrrolo[2,3-c]pyridin-2-yl)-1H-pyrazolo[3,4-c]pyridin-5-yl)pyridin-3-yl)-3,3-dimethylbutanamide] | > 10000 | > 10000 | > 10000 | > 10000 | 16.3 | 0 | 29 | 14.6
3 | CC(C)(C)C(=O)Nc1cncc(-c2cc3c(-c4cc5c(-c6ccc(F)cc6)cncc5[nH]4)n[nH]c3cn2)c1 [Compound 36, N-(5-(3-(4-(4-Fluorophenyl)-1H-pyrrolo[2,3-c]pyridin-2-yl)-1H-pyrazolo[3,4-c]pyridin-5-yl)pyridin-3-yl)pivalamide] | > 10000 | 1600 | 1100 | 299 | – | – | 29.6 | –
4 | CC(C)Nc1cncc(-c2cc3c(-c4cc5c(-c6ccc(F)cc6)cncc5[nH]4)n[nH]c3cn2)c1 [Compound 40, 5-(3-(4-(4-Fluorophenyl)-1H-pyrrolo[2,3-c]pyridin-2-yl)-1H-pyrazolo[3,4-c]pyridin-5-yl)-N-isopropylpyridin-3-amine] | 2470 | 937 | 1290 | 141 | – | – | – | –
5 | Cc1ccncc1-c1cc2c(-c3cc4c(-c5ccoc5)cncc4[nH]3)n[nH]c2cn1 [Compound 313, 3-(4-(Furan-3-yl)-1H-pyrrolo[2,3-c]pyridin-2-yl)-5-(4-methylpyridin-3-yl)-1H-pyrazolo[3,4-c]pyridine] | 4270 | 1590 | 1740 | 599 | – | – | – | –

Continued, in another order:

Row | EC50 [2] [nM] | EC50 [3] [nM] | EC50 [4] [nM] | SMILES | EC50 [1] [nM] | inhibition at 10 µM [4] [%] | inhibition at 10 µM ([1]; read-out: percent inhibition at 10 μM) [%] | inhibition at 10 µM [2] [%] | inhibition at 10 µM ([3]; SW480, read-out: percent inhibition at 10 μM) [%]
6 | 3170 | 1340 | 1300 | c1ncc(-c2cc3c(-c4cc5c(N6CCCCC6)cncc5[nH]4)n[nH]c3cn2)cc1OC1CCCCC1 [Compound 607, 5-(5-(Cyclohexyloxy)pyridin-3-yl)-3-(4-(piperidin-1-yl)-1H-pyrrolo[2,3-c]pyridin-2-yl)-1H-pyrazolo[3,4-c]pyridine] | 532 | – | – | – | –
7 | 1320 | 5240 | 4100 | FC1(F)CCN(Cc2cncc(-c3cc4c(-c5cc6c(-c7cccs7)cncc6[nH]5)n[nH]c4cn3)c2)C1 [Compound 362, 5-(5-((3,3-Difluoropyrrolidin-1-yl)methyl)pyridin-3-yl)-3-(4-(thiophen-2-yl)-1H-pyrrolo[2,3-c]pyridin-2-yl)-1H-pyrazolo[3,4-c]pyridine] | 1160 | – | – | – | –
8 | 3580 | 2860 | 820 | CN(C)c1cncc(-c2cc3c(-c4cc5ccncc5[nH]4)n[nH]c3cn2)c1 [Compound 259, 5-(3-(1H-Pyrrolo[2,3-c]pyridin-2-yl)-1H-pyrazolo[3,4-c]pyridin-5-yl)-N,N-dimethylpyridin-3-amine] | 606 | – | – | – | –
9 | > 10000 | 5510 | 3950 | c1cc(-c2cc3c(-c4cc5c(N6CCCCC6)cncc5[nH]4)n[nH]c3cn2)ccn1 [Compound 186, 3-(4-(Piperidin-1-yl)-1H-pyrrolo[2,3-c]pyridin-2-yl)-5-(pyridin-4-yl)-1H-pyrazolo[3,4-c]pyridine] | 4870 | – | – | 20.1 | –
